Results taken from patent US4739106A, “3-amino-3-carbamoyloxyalkylacrylic acid intermediates to dihydropyridines” (Banyu Pharmaceutical Co., Ltd., priority 1982, dated 1988).
Converted amounts (≈) assume the structure as drawn.

How the values were obtained:
[1] = system: cerebral blood flow and peripheral blood flow; experiment: Separate pharmacological test: cerebral and peripheral blood flow, i.v.; assay type: in vivo; conditions: 1 to 10 μg/kg intravenously
[2] = system: isolated hearts of rabbits (coronary vessels); experiment: Coronary vasodilation, Langendorff method, isolated hearts of rabbits; conditions: Oryctolagus cuniculus, dosage of a sample required to increase the coronary outflow by 50%, isolated rabbit hearts, read-out: Coronary vasodilation ICD50
Method: (a) Coronary vasodilation
According to Langendorff method (O. Langendorff; Pflugers arch. ges. phisiol., 61, 291-332 (1895)), the coronary vasodilation effects were tested using isolated hearts of rabbits. The strength of coronary vasodilation was evaluated by ICD50 (g/ml) i.e. the dosage of a sample required to increase the coronary outflow by 50%.

[3] = Acute toxicity, i.v., DM strain male mice, up-and-down method; conditions: mouse, in vivo, iv
Beagle dogs = experiment: Coronary effects on anesthetized beagle dogs (CF, FAF, BP, HR), i.v.; assay type: in vivo, dog (beagle); conditions: for CF % increase: coronary blood flow; for CF % increase / FAF % increase / HR % increase: vs saline control; for FAF % increase: femoral artery blood flow; for HR % increase: heart rate; for BP % decrease: systemic blood pressure, vs control
Method: (c) Coronary effects on dogs
Beagle dogs (13 to 16 kg, .male.) were subjected to thoracotomy under anesthesia with sodium pentobarbital, and a probe was attached to the heart left coronary anterior descending artery of each animal, whereupon the coronary blood flow (CF) was measured by an electromagnetic flowmeter. On the other hand, a probe was attached to the exposed right femoral artery, and the femoral artery blood flow (FAF) was measured by an electromagnetic flowmeter. A canule was inserted to the left femoral artery, and the systemic blood pressure (BP) was bloody measured by a transducer.
The heart rate (HR) was measured by an electrocardiogram.
The sample solution was intravenously injected to the right femoral vein.
The coronary blood flow (CF), the femoral artery blood flow (FAF) and the heart rate (HR) were represented by a % increase upon the injection of each sample as compared with the respective control value upon the injection of a saline.
The systemic blood pressure (BP) was represented by a % decrease as compared with the control.

With `CCOC(=O)C1=C(C)NC(COC(N)=O)=C(C(=O)OCC)C1c1cccc([N+](=O)[O-])c1` (stereo not drawn) [(1), 2-Carbamoyloxymethyl-6-methyl-4-(m-nitrophenyl)-3,5-diethoxycarbonyl-1,4-dihydropyridine] the “Increase of cerebral blood flow” value [1] was 40 to 50% and the “Increase of peripheral blood flow” value [1] was 40 to 50%.
In the case of `CCOC(=O)C1=C(C)NC(COC(=O)NC)=C(C(=O)OCC)C1c1cccc([N+](=O)[O-])c1` (stereo not drawn) [(2)], the EC50 [2] is reported as 0.32 µg/mL (≈ 0.715 µM) and the LD50 [3] is reported as 71 mg/kg.
`CNC(=O)OCC1=C(C(=O)OC)C(c2cccc([N+](=O)[O-])c2)C(C(=O)OC)=C(C)N1` (stereo not drawn) [(4)] showed an EC50 [2] of 0.36 µg/mL (≈ 0.858 µM) and an LD50 [3] of 84 mg/kg.
With `CCOC(=O)C1=C(C)NC(COC(N)=O)=C(C(=O)OCC)C1c1ccccc1[N+](=O)[O-]` (stereo not drawn) [(5), 2-Carbamoyloxymethyl-6-methyl-4-(o-nitrophenyl)-3,5-diethoxycarbonyl-1,4-dihydropyridine] the CF % increase (Beagle dogs; 1 μg/kg i.v.) was 13%, the CF % increase (Beagle dogs; 3 μg/kg i.v.) was 38% and the CF % increase (Beagle dogs; 10 μg/kg i.v.) was 86%. It also gave an FAF % increase (Beagle dogs; 1 μg/kg i.v.) of 8%, an FAF % increase (Beagle dogs; 3 μg/kg i.v.) of 35% and an FAF % increase (Beagle dogs; 10 μg/kg i.v.) of 82%. It also gave an HR % increase (Beagle dogs; 1 μg/kg i.v.) of 0%, an HR % increase (Beagle dogs; 3 μg/kg i.v.) of 0% and an HR % increase (Beagle dogs; 10 μg/kg i.v.) of -10%. It also gave a BP % decrease (Beagle dogs; 1 μg/kg i.v.) of 0%, a BP % decrease (Beagle dogs; 3 μg/kg i.v.) of 2% and a BP % decrease (Beagle dogs; 10 μg/kg i.v.) of 22%.
For `CCCOCCOC(=O)C1=C(C)NC(COC(N)=O)=C(C(=O)OCCOCCC)C1c1cccc([N+](=O)[O-])c1` (stereo not drawn) [(12), 2-Carbamoyloxymethyl-6-methyl-4-(m-nitrophenyl)-3,5-bis[(β-propoxyethoxy)carbonyl]-1,4-dihydropyridine], the “Increase of cerebral blood flow” value [1] was 40 to 50% and the “Increase of peripheral blood flow” value [1] was 40 to 50%.
In the case of `CCCOCCOC(=O)C1=C(C)NC(COC(=O)NC)=C(C(=O)OCCOCCC)C1c1cccc([N+](=O)[O-])c1` (stereo not drawn) [(13), 2-N--Methylcarbamoyloxymethyl,-6-methyl-4-(m-nitrophenyl)-3,5-bis[(β-propoxyethoxy)carbonyl]-1,4-dihydropyridine], the “Increase of cerebral blood flow” value [1] is reported as 40 to 50% and the “Increase of peripheral blood flow” value [1] is reported as 40 to 50%.
`COC(=O)C1=C(COC(N)=O)NC(C)=C(C(=O)OCCN(C)Cc2ccccc2)C1c1cccc([N+](=O)[O-])c1` (stereo not drawn) [(15), 2-Carbamoyloxymethyl-6-methyl-4-(m-nitrophenyl)-3-methoxycarbonyl-5-(β-N--methylbenzylaminoethoxy)carbonyl-1,4-dihydropyridine] gave an LD50 [3] of 200 mg/kg.
For `COC(=O)C1=C(COC(N)=O)NC(C)=C(C(=O)OCCN2CCOCC2)C1c1cccc([N+](=O)[O-])c1` (stereo not drawn) [(18), 2-Carbamoyloxymethyl-6-methyl-4-(m-nitrophenyl)-3-methoxycarbonyl-5-(β-morpholinoethoxy)carbonyl-1,4-dihydropyridine], the LD50 [3] was 200 mg/kg.
